# Results published in PubChem BioAssay (NCI).
#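 Values below derive from 48-hour exposures of cells grown in 96-well plates, with endpoints linearly interpolated between the two concentrations bracketing the appropriate inhibition level. GI50 = concentration required for 50% inhibition of growth. At the TGI there is no net growth.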
# Assays:
# Assay in all cases: inhibition of tumour cell growth, NCI panel, 48 h
# NCI-H226 lung = tested on: NCI-H226 lung
# MDA-MB-231 breast = tested on: MDA-MB-231 breast
# IGROV1 ovarian = tested on: IGROV1 ovarian
# A549 NSCLC = tested on: A549 NSCLC
# OVCAR-8 ovarian = tested on: OVCAR-8 ovarian
# OVCAR-4 ovarian = tested on: OVCAR-4 ovarian
# NCI-H23 lung = tested on: NCI-H23 lung
# UACC-62 melanoma = tested on: UACC-62 melanoma
# DMS 114 small cell lung = tested on: DMS 114 small cell lung
# SNB-78 CNS = tested on: SNB-78 CNS
# KM20L2 colon = tested on: KM20L2 colon
# HOP-18 NSCLC = tested on: HOP-18 NSCLC
SMILES,GI50 (NCI-H226 lung),TGI (NCI-H226 lung),GI50 (MDA-MB-231 breast),TGI (MDA-MB-231 breast),GI50 (IGROV1 ovarian),TGI (IGROV1 ovarian),GI50 (A549 NSCLC),TGI (A549 NSCLC),GI50 (OVCAR-8 ovarian),TGI (OVCAR-8 ovarian),GI50 (OVCAR-4 ovarian),TGI (OVCAR-4 ovarian),GI50 (NCI-H23 lung),TGI (NCI-H23 lung),GI50 (UACC-62 melanoma),TGI (UACC-62 melanoma),TGI (DMS 114 small cell lung),TGI (SNB-78 CNS),TGI (KM20L2 colon),TGI (HOP-18 NSCLC)
COc1cc2c3c(n(CCCNCCCNCCCN)c(=O)c2cc1OC)-c1cc2c(cc1C3=O)OCO2,> 100 µM,> 100 µM,> 100 µM,> 100 µM,> 100 µM,> 100 µM,> 100 µM,> 100 µM,> 100 µM,> 100 µM,6.63 µM,> 100 µM,13.5 µM,> 100 µM,44.1 µM,> 100 µM,–,–,–,–
COc1ccc(C(O)c2cc3c(N)c(C(=O)Nc4cccc(Br)c4C)sc3nc2C)cc1 (configuration not stated),0.989 µM,17.9 µM,0.462 µM,8.96 µM,0.375 µM,18.8 µM,0.221 µM,> 16.8 µM,0.225 µM,> 23 µM,2.81 µM,> 33.3 µM,0.276 µM,> 33.3 µM,0.141 µM,> 31 µM,–,–,–,–
C1=CC2CCC1CN2CCC1CNc2ccccc21 (configuration not stated),–,> 100 µM,–,–,–,> 100 µM,–,> 100 µM,–,> 100 µM,–,–,–,> 100 µM,–,> 100 µM,> 100 µM,> 100 µM,> 100 µM,> 100 µM
CC1(C)C2CCC13C(=O)C1OC3(C2)C2C(=O)c3c(ccc4c3ccc3ccccc34)C(=O)C12 (configuration not stated),> 100 µM,> 100 µM,> 37.2 µM,> 53.2 µM,> 100 µM,> 100 µM,> 60.1 µM,> 100 µM,> 61.1 µM,> 100 µM,56.1 µM,> 100 µM,> 48.4 µM,> 81.5 µM,> 100 µM,> 100 µM,–,–,–,–
COc1cc2cc(Oc3cccc(NC(=O)Nc4cc(C(F)(F)F)cc(C(F)(F)F)c4)c3)c(C)nc2cc1OC,1.8 µM,3.91 µM,1.08 µM,2.49 µM,0.509 µM,2.3 µM,1.42 µM,4.75 µM,1.63 µM,4.22 µM,1.22 µM,4.44 µM,0.639 µM,3.55 µM,0.561 µM,2.09 µM,–,–,–,–
CC(=O)Oc1cc2cnc3c4cc(OC(C)=O)c(OC(C)=O)cc4ccc3c2cc1OC(C)=O,2.04 µM,8.91 µM,1.02 µM,> 100 µM,1.01 µM,14 µM,3.69 µM,> 100 µM,1.97 µM,31.2 µM,1.35 µM,> 100 µM,2.54 µM,> 100 µM,0.979 µM,3.26 µM,–,–,–,–
CC[C@H]1OC(=O)[C@H](C)[C@@H](O[C@H]2C[C@@](C)(OC)[C@@H](O)[C@H](C)O2)[C@H](C)[C@@H](O[C@@H]2O[C@H](C)C[C@H](N(C)C)[C@H]2O)[C@](C)(OC)C/C(C)=C2/O[C@@]1(C)C=C2C,2.12 µM,4.42 µM,1.67 µM,3.13 µM,1.59 µM,3.03 µM,1.63 µM,3.42 µM,2.2 µM,5.75 µM,1.85 µM,4.22 µM,1.96 µM,3.63 µM,1.76 µM,3.18 µM,–,–,–,–
Nc1ccccc1C#Cc1ccccc1C#Cc1cccs1,17.7 µM,43.3 µM,11.8 µM,28.2 µM,18.4 µM,90.8 µM,16.9 µM,> 100 µM,42.7 µM,> 100 µM,31 µM,> 100 µM,17.2 µM,34.1 µM,13.8 µM,28.6 µM,–,–,–,–
C[C@H]1CC[P+](C)(c2ccccc2)C1 (some centres not stated),–,> 100 µM,–,–,–,> 100 µM,–,> 100 µM,–,> 100 µM,–,–,–,> 100 µM,–,> 100 µM,> 100 µM,> 100 µM,> 100 µM,> 100 µM
CN1CC[C@H](c2c(O)cc(O)c3c(=O)cc(-c4ccccc4Cl)oc23)[C@H](O)C1,0.0695 µM,0.46 µM,0.23 µM,> 10 µM,0.0414 µM,> 10 µM,0.0946 µM,> 10 µM,0.0723 µM,> 10 µM,0.14 µM,1.54 µM,0.0793 µM,0.609 µM,0.0515 µM,0.164 µM,–,–,–,–
O=c1cccc(Cl)[nH]1,–,> 100 µM,–,> 100 µM,–,> 100 µM,–,> 100 µM,–,> 100 µM,–,> 100 µM,–,> 100 µM,–,> 100 µM,–,–,–,–
CC1(C)N=C(N)N=C(N)N1c1cccc(CCc2ccccc2)c1,3.42 µM,> 100 µM,4.27 µM,> 100 µM,0.113 µM,17.6 µM,0.125 µM,> 100 µM,0.634 µM,> 100 µM,0.528 µM,79.5 µM,0.551 µM,> 100 µM,0.49 µM,20.4 µM,–,–,–,–
COc1cc(NC2CCCCC2O)c2nc(-c3ccc(Cl)cc3)ccc2c1 (configuration not stated),18.6 µM,> 100 µM,4.43 µM,57.8 µM,24.6 µM,> 100 µM,6.05 µM,> 100 µM,12.2 µM,> 100 µM,10.1 µM,> 100 µM,6.15 µM,61.7 µM,11.1 µM,40.6 µM,–,–,–,–
CCCCC1(C(NC(=O)c2ccccc2Cl)c2ccncc2)C(=O)N(c2ccccc2)N(c2ccccc2)C1=O (configuration not stated),–,> 100 µM,–,–,–,> 100 µM,–,> 100 µM,–,> 100 µM,–,–,–,> 100 µM,–,> 100 µM,> 100 µM,> 100 µM,> 100 µM,> 100 µM
COc1ccc(/C=C/C(=O)c2cc3c(N)c(C(=O)Nc4ccc(OC)cc4)sc3nc2C)cc1,0.0872 µM,–,1.28 µM,22 µM,0.551 µM,> 50 µM,0.231 µM,> 50 µM,0.334 µM,> 50 µM,0.324 µM,> 50 µM,0.181 µM,–,0.161 µM,> 50 µM,–,–,–,–
